Results on six compounds are retold here after patent US4272529A, “O-Alcoxycarbonylphenyl esters of anthranilic acid with therapeutical activity, method for their preparation and related pharmaceutical composition” (Simes S.p.A., priority 1979, dated 1981).

Values joined by “and” are separate entries in the source; they are usually repeats but may differ in a detail not shown here. Identical values can stand only once. Like-named read-outs stand apart in the source and are kept apart here.

One may read the ED50 as the dose at which the effect has come halfway, by size or by number of responders. As a reminder, the LD50 is the dose at which mortality reaches 50%. A high value points to a less toxic substance.

In series [1] the test system is adjuvant induced arthritis in the rat. Particulars: for Non injected paw, 18th day, inhibition % / Non injected paw, 18th day, volume: daily 14th to 18th day. The text has this:
(§1) According to the second experimental model of adjuvant induced arthritis, there were studied the effects of the tested compounds in the disease already developed for 14 days; the substances were daily administered to groups of six rats for each dosage, from the 14th to the 18th day. […] There was also investigated the irritating property of the compound with respect to the gastric tissues in the rat.

The subject of series [2] is carrageenin induced edema in the rat. The experiment in a line: Inhibition of the carrageenin induced edema in the rat, further series (right rear paw vs left rear paw). It counts as in vivo. Particulars: for Inhibition of the carrageenin induced edema: 3 hours after carrageenin. On the procedure:
The volume difference between the two paws was compared with the values of a control group. In this case too, the carrageenin was injected one hour after the oral administration of the substances being tested as an aqueous suspension; the edema was evaluated 3 hours after the carrageenin injection.
In general terms: Carrageenan injected into the paw causes an acute inflammation.

The test system of series [3] is adjuvant induced arthritis in the rat. Put plainly: Adjuvant induced arthritis in the developing phase. It counts as in vivo, Lewis rats. The note with it: for Paw volume, injected paw (3rd day) / Paw volume, non injected paw (14th day): unit assumed. How it is done:
In the first one, relating to the developing arthritis (Table 4), groups of six Lewis rats have been tested for each dosage; a group was used as the control. Suspensions of the compound being tested were administered for 14 days, starting on the same day of the adjuvant inoculation (0.3 mg of Mycobacterium butyricum in 0.1 ml of mineral oil) in the plantar surface of the right rear paw. The body weights and the volumes of both paws were measured at the third and fourteenth days; the body weights were taken as the toxicity indexes; the paw volumes were used for the calculation of the percent inhibition of the swelling as determined by the adjuvant induced arthritis (D. Walz et al., J. Pharmacol. Exper. Therap., 178, 223, 1971).

Series [4] has as its system gastric tissues in the rat. On the procedure:
as §1
The substances were administered as an aqueous suspension and the animals ware sacrificed after either 4 or 24 hours; the stomachs were removed, opened, washed under tap water and examined.
As regards the 4 hour test (Table 7), the following scoring was used, relating to the hemorrhage degree:
1=one or two points of light hemorrhage
2=some points of light hemorrhage
4=very serious hemorrhages.
In this case too the sum of the scores of three rats for each dosage is reported.

The test system of series [5] is carragenin induced edema in the paw of rat. Put plainly: Carragenin induced edema in the paw of rat, 50% inhibiting oral dose. It counts as in vivo. Particulars: for ED50: 1 hour before carrageenin, 3 to 4 hours after carrageenin.
Experimental: The edema was induced by injecting the carrageenin (0.1 ml of the 1% suspension in physiological solution) in the plantar aponeurosis of the rear paw of the rat one hour after the oral administration of the tested substances; the edema inhibition was evaluated, 3 to 4 hours after the carrageenin injection, from the difference between the volumes of the paw before and after the carragenin injection with respect to a group of control animals.
The nature of the next series: in vivo. Particulars: mouse, po.
The test system of series [6] is gastric tissues in the rat. Put plainly: Acute gastric irritation in the rat (24 hours). Particulars: for Acute gastric irritation score: sum of scores (0-4) of three rats. It counts as in vivo. On the procedure:
The following score scale was used for the 24 hour test (Table 6): 0=no lesion or hemorrhage 1=one or two light lesions with hemorrhage 2=some light lesions with hemorrhage 3=some lesions with hemorrhage. […] 4=very serious lesions with hemorrhage. There were used three rats per each dosage and the sum of the scores was made.

The next series deals with mouse. The note with it: in vivo.
A further series in a line: Toxicity in the rat. Particulars: in vivo. How it is done: In the rat too the toxicity of compound I is very low (4,500 mg/kg).

As for `CC(=O)Oc1ccccc1C(=O)O` [Acetylsalicylic acid, acetylsalicylic acid], the “Non injected paw, 18th day, inhibition %” value in [1] (100 mg/kg os) came to 37%; in [1] (200 mg/kg os) it was 47%. Besides, the “Non injected paw, 18th day, volume” value in [1] (100 mg/kg os) is 2.10; in [1] (200 mg/kg os), 1.93. The “Inhibition of the carrageenin induced edema” value in series [2] (50 mg/kg os) is given as 12%; in series [2] (100 mg/kg os), 35%; in series [2] (200 mg/kg os), 43%. The “Inhibition %, injected paw (3rd day)” value is recorded as 30% in series [3] (100 mg/kg os) and 40% in series [3] (200 mg/kg os). Moreover, the “Inhibition %, non injected paw (14th day)” value in series [3] (100 mg/kg os) came to 33%; in series [3] (200 mg/kg os), 63%. Further, the Paw volume, injected paw (3rd day) turned out to be 1.65 mL in series [3] (100 mg/kg os) and 1.53 mL in [3] (200 mg/kg os). Further, the values for the Paw volume, non injected paw (14th day) in series [3] (100 mg/kg os) and in [3] (200 mg/kg os) were 1.49 mL and 1.26 mL, respectively. Besides, the “Acute gastric irritation score” value in series [4] (150 mg/kg os, 4 hours, sum of hemorrhage scores (0-4) of three rats) is 7.
Consider `COC(=O)c1ccccc1O` [Methyl salicylate, methyl salicylate], for which, in series [5], the ED50 was 289 mg/kg and 1900 µmol/kg. The LD50 in “in vivo” was 1160 mg/kg and 7600 µmol/kg.
As to `CCCCC1C(=O)N(c2ccccc2)N(c2ccccc2)C1=O` [Phenylbutazone, phenylbutazone], in series [1] (25 mg/kg os), the “Non injected paw, 18th day, inhibition %” value is given as 46% and the “Non injected paw, 18th day, volume” value is recorded as 1.95. Moreover, the “Inhibition of the carrageenin induced edema” value in series [2] (50 mg/kg os) is on record as 34%. Besides, in [3] (25 mg/kg os), the “Inhibition %, injected paw (3rd day)” value is 39%; the “Inhibition %, non injected paw (14th day)” value is 42%; the Paw volume, injected paw (3rd day) is 1.66 mL; the Paw volume, non injected paw (14th day) was 1.52 mL.
Turning to `COC(=O)c1ccccc1OC(=O)c1ccccc1Nc1cccc(C(F)(F)F)c1` [Compound I, N-m-trifluoromethyl-phenylanthranilate of O-methoxycarbonylphenyl], the figures for the “Non injected paw, 18th day, inhibition %” value in [1] (5 mg/kg os), in series [1] (10 mg/kg os) and in [1] (25 mg/kg os) were 27%, 46% and 100%, respectively. In addition, the “Non injected paw, 18th day, volume” value in [1] (5 mg/kg os) is listed as 2.16; in series [1] (10 mg/kg os), 1.82; in [1] (25 mg/kg os), 1.04. Also, in [1] (compared with reference drugs), the “Activity in already developed arthritis (in words)” value was “more active than acetylsalicylic acid and than phenylbutazone”. For the same compound, the median effective dose (ED50) in [5] was 176 mg/kg and 420 µmol/kg. Also, in series [5] (in terms of molar doses), the “Anti-inflammatory activity (in words)” value was “like that of the flufenamic acid and higher than that of the methyl salicylate and that of the equimolar mixture of methyl salicylate and of flufenamic acid”. The “Inhibition of the carrageenin induced edema” value in series [2] (1 mg/kg os) is 0%; in series [2] (1.5 mg/kg os), 24%; in [2] (5 mg/kg os), 21%; in series [2] (10 mg/kg os) it was 34%; in series [2] (25 mg/kg os), 42%; in series [2] (50 mg/kg os), 52%. For the same compound, in series [2] (Rattus norvegicus, po, os, dose for which a 30% inhibition is obtained, read-out: ED30 (approximately)), the ED30 is roughly 8 mg/kg. Moreover, in series [2] (rat, oral, compared with reference drugs), the “Activity in carrageenin induced edema (in words)” value was “higher than that of aspirin and phenylbutazone, and lower than that of indomethacin”. In addition, the “Inhibition %, injected paw (3rd day)” value in [3] (5 mg/kg os) was found to be 48%; in series [3] (10 mg/kg os), 53%; in series [3] (25 mg/kg os), 36%. Also, the “Inhibition %, non injected paw (14th day)” value in [3] (5 mg/kg os) came out at 10%; in series [3] (10 mg/kg os) it was 47%; in series [3] (25 mg/kg os) it was 35%. For the same compound, the values for the Paw volume, injected paw (3rd day) in series [3] (5 mg/kg os), in series [3] (10 mg/kg os) and in series [3] (25 mg/kg os) were 1.5 mL, 1.53 mL and 1.79 mL, respectively. Also, the Paw volume, non injected paw (14th day) in [3] (5 mg/kg os) is 1.64 mL; in series [3] (10 mg/kg os), 1.47 mL; in series [3] (25 mg/kg os) it was 1.67 mL. Further, in [3] (index of poor toxicity), the “Increase of the weight of the rats (in words)” value is “normal”. Besides, in series [3] (rat, in vivo), the “Inhibiting effect in developing arthritis (in words)” value is recorded as “strong inhibiting effect”. Further, the “Ulcerogenic action (in words)” value in [4] (rat, in vivo) is “highly less ulcerogenic than indomethacin and than acetylsalicylic acid”. Further, the “Acute gastric irritation score” value in series [6] (25 mg/kg os) worked out at 1; in series [6] (50 mg/kg os), 1; in series [6] (100 mg/kg os) it was 2; in series [6] (200 mg/kg os) it was 1; in series [6] (400 mg/kg os), 1; in series [6] (800 mg/kg os), 3. In addition, in series [6] (1600 mg/kg os), the “Acute gastric irritation score” value is on record as 2. The “Ulcerogenic / gastric irritating action (in words)” value in [6] (compared with reference drugs) was “highly less ulcerogenic than indomethacin and than acetylsalicylic acid”. Further, the LD50 in the series “in vivo” is 9500 mg/kg and 22800 µmol/kg; in “Toxicity in the rat”, 4500 mg/kg. Moreover, the “Acute toxicity (in words)” value in the series on mouse is “relevantly less toxic than the reference substances as well as than their mixture”.
For `O=C(O)c1ccccc1Nc1cccc(C(F)(F)F)c1` [Flufenamic acid, flufenamic acid], the ED50 in series [5] was 112 mg/kg and 400 µmol/kg. The LD50 in “in vivo” was 875 mg/kg and 3100 µmol/kg.
As to `COc1ccc2c(c1)c(CC(=O)O)c(C)n2C(=O)c1ccc(Cl)cc1` [Indomethacin, indomethacin], in series [1] (1 mg/kg os), the “Non injected paw, 18th day, inhibition %” value was found to be 38% and the “Non injected paw, 18th day, volume” value turned out to be 2.06. Also, in [2] (5 mg/kg os), the “Inhibition of the carrageenin induced edema” value came out at 40%. In series [3] (1 mg/kg os), the “Inhibition %, injected paw (3rd day)” value stood at 39%; the “Inhibition %, non injected paw (14th day)” value is 32%; the Paw volume, injected paw (3rd day) was found to be 1.63 mL; the Paw volume, non injected paw (14th day) turned out to be 1.55 mL. For the same compound, the “Acute gastric irritation score” value in series [6] (40 mg/kg os) worked out at 5.
